For series [1] the following is noted: previous clinical findings; cited from earlier work.
The test system of series [2] is HCT-116. Kind of series: Toxicity experiment in static conditions, hydrogel-encapsulated cells, Trypan-blue viability, PD model fit. It counts as cell-based. As to conditions: Homo sapiens, HCT-116, 72 h, 5-FU 0, 0.1, 0.2, 0.5 mM, three days, read-out: KC50 (drug concentration where half of the maximum rate is observed), fitted PD parameter. How it is done:
(§1) For static condition experiment, the same silicone gaskets were prepared on a glass slide, similar to the μCCA. Cells were seeded into the holes, encapsulated in hydrogel, and […] of cell culture medium were placed on top. This volume is same as the volume of medium placed in the reservoir of a μCCA. Therefore, cells in static conditions are essentially the same as the cells in a μCCA, except that the device was not assembled with the channel layer, and cells were immersed in liquid medium. Cell viability was assessed using the same method as a μCCA.

Series [3] deals with HepG2/C3A. The description is as above. The conditions noted are these: three days. Format: cell-based. How it is done:
as §1

Series [4] concerns Kasumi-1. Described as above. It counts as cell-based. The conditions noted are these: Homo sapiens, Kasumi 1, 72 h, 5-FU 0, 0.1, 0.2, 0.5 mM, three days, read-out: KC50 (drug concentration where half of the maximum rate is observed), fitted PD parameter. How it is done:
as §1

The test system of series [5] is dihydropyrimidine dehydrogenase (DPD). The conditions noted are these: PK model parameter; calculated from rate of metabolism in a rat and reported liver protein content and cell number; cited from earlier work.
Series [6] relates to Kasumi-1. Kind of series: Toxicity in three-chamber μCCA (dynamic conditions), Trypan-blue viability, PK-PD model fit. The conditions noted are these: three days.
Method: (§2) The device was placed on a rocking platform, set to change direction at approximately every 3 min.
(§3) The whole system was placed inside a cell culture incubator with 5% CO2. After a specified amount of time, the device was dissembled and cells were retrieved by dissolving the alginate in a dissolving buffer (55 mM sodium citrate, 30 mM EDTA, 0.15M NaCl) for 30 min at 37° C., or from […] ® by dissolving in DPBS with 5 mM EDTA solution at 4° C. Cell viability was determined by Trypan-blue exclusion assay using a hemocytometer. At least triplicates were done for each data point.
(§4) An integrated PK-PD model was developed by constructing a PK and PD model separately, and then combining the two. A PK model has the same layout of compartments as a μCCA device. A PD model is integrated into each compartment, describing the kinetics of cell death in each organ. To construct a PK model for a μCCA, mass balance equations describing the flow in, flow out, and metabolism were set up for each compartment, and the ordinary differential equations (ODEs) were solved numerically. Solving the equations required several parameters, such as physiological parameters (flow rate and size of chambers) and enzyme kinetic parameters for the metabolism of 5-FU and uracil, which are summarized in Table 1. […]
The subject of series [7] is HepG2/C3A. The description is as above. The conditions noted are these: both static and dynamic conditions; lower Kmax or higher KC50.
Method: as §2, §3, §4
Series [8] has as its system HCT-116. Described as above. The conditions noted are these: three days.
Method: as §2, §3, §4
For series [9], the system named is HepG2/C3A, HCT-116 and Kasumi-1 cells. Put plainly: μCCA viability of three cell lines, 5-FU alone vs 5-FU plus uracil (uracil as modulator).
Method: The device was assembled by sandwiching a cell culture chamber layer and a fluidic channel layer between an aluminum bottom frame and a PLEXIGLAS® top frame. A silicone gasket and a polycarbonate base were added to ensure better sealing. […] The device was placed on a rocking platform, set to change direction at approximately every 3 min.
as §3
The effect of uracil as a modulator of 5-FU toxicity was tested by comparing the responses of cells to 5-FU plus uracil and 5-FU alone. […] Cells were also encapsulated in a different hydrogel, […] ®, in a μCCA.

Regarding `O=c1[nH]cc(F)c(=O)[nH]1` [5-FU, 5-fluorouracil], in series [1], the Dose-limiting toxicity entry is listed as “hematological toxicity”. Moreover, the EC50 amounted to 8.61 mM with HCT-116 [2]; 5.52 mM with HepG2/C3A [3] (HepG2/C3A, 72 h, 5-FU 0, 0.1, 0.2, 0.5 mM, read-out: KC50 (drug concentration where half of the maximum rate is observed), fitted PD parameter); 7.41 mM in the series with Kasumi-1 [4]. Further, the “Drop in viability compared with other cell types” value in the series with HepG2/C3A [3] is “slower drop in the viability”. The “Maximum rate of metabolism (Vm)” value in [5] is 2385 nmol/min/mL. The “Sensitivity to 5-FU treatment compared with hepatoma (HepG2/C3A) cell line” value with Kasumi-1 [6] and with HCT-116 [8] was “much more sensitive” in each case. Further, the “Resistance to 5-FU compared with other two cell types” value with HepG2/C3A [7] was “most resistant”. The “Sensitivity of cells to 5-FU in dynamic conditions versus static conditions” value in series [9] is reported as “more sensitive”.

For the compound `O=c1cc[nH]c(=O)[nH]1` [uracil], in [5], the “Maximum rate of metabolism (Vm)” value was 1695 nmol/min/mL.

The values above are taken from US8748180B2, “Microfluidic device for pharmacokinetic-pharmacodynamic study of drugs and uses thereof” (Cornell University, priority 2009, dated 2014).
